Experiment in all cases: Holoreceptor transactivation assay
Holding throughout (assay type): cell-based

The subject of assay [1] is RXRβ. The following applies: relative to all trans retinoic acid. An excerpt: (§1) A holoreceptor transactivation assay and a ligand binding assay which measure the antagonist/agonist like activity of the compounds of the invention, or their ability to bind to the several retinoid receptor subtypes, respectively, are described in published PCT Application No. WO93/11755 (particularly on pages 30-33 and 37-41) published on Jun. 24, 1993, the specification of which is also incorporated herein by reference. A description of the holoreceptor transactivation assay is also provided below.
(§2) CV1 cells (5,000 cells/well) were transfected with an RAR reporter plasmid MTV-TREp-LUC (50 ng) along with one of the RAR expression vectors (10 ng) in an automated 96-well format by the calcium phosphate procedure of Heyman et al. Cell 68: 397-406. For RXR-α and RXR-γ transactivation assays, an RXR-responsive reporter plasmid CRBPII-tk-LUC (50 ng) along with the appropriate RXR expression vectors (10 ng) was used substantially as described by Heyman et al. above, and Allegretto et al. J. Biol. Chem. 268: 26625-26633. For RXR-β transactivation assays, an RXR-responsive reporter plasmid CPRE-tk-LUC ([…]) along with RXR-β expression vector ([…]) was used as described in above. These reporters contain DRI elements from human CRBPII and certain DRI elements from promotor, respectively (see Mangelsdorf et al. The Retinoids: Biology Chemistry and Medicine, pp. 319-349, Raven Press Ltd., New York and Heyman et al., cited above). A β-galactosidase (50 ng) expression vector was used as an internal control in the transfections to normalize for variations in transfection efficiency. The cells were transfected in triplicate for 6 hours, followed by incubation with retinoids for 36 hours, and the extracts were assayed for luciferase and […] activities. The detailed experimental procedure for holoreceptor transactivations has been described in Heyman et al. above, and Allegretto et al. cited above. The results obtained in this assay are expressed in EC50 numbers, as they are also in the chimeric receptor transactivation assay. The Heyman et al. Cell 68: 397-406, Allegretto et al. J. Biol. Chem. 268: 26625-26633, and Mangelsdorf et al. The Retinoids: Biology, Chemistry, and Medicine, pp. 319-349, Raven Press Ltd., New York, are expressly incorporated herein by reference. The results of ligand binding assay are expressed in Kd numbers. (See Cheng et al. Biochemical Pharmacology 22: 3099-3108, expressly incorporated herein by reference.)

For assay [2], the target named is T1, RARα (Homo sapiens, UniProt P10276).
T1 sequence (P10276 1-462): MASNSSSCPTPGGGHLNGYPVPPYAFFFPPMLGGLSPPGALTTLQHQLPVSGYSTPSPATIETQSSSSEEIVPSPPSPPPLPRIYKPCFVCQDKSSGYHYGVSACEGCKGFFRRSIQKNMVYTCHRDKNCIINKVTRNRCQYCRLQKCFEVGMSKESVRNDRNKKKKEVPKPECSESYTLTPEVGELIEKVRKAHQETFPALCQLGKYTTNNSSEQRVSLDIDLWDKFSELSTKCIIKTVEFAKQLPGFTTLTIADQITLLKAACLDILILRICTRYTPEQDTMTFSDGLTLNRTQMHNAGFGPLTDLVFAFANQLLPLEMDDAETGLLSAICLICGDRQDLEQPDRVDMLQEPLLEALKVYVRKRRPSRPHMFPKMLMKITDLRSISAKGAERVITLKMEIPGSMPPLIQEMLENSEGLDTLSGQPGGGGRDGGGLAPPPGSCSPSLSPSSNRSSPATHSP
Also noted: expressed in transfected cells; host or cells: CV1 cells. The following applies: relative to all trans retinoic acid; read-out: Transactivation Assay Efficacy (% of RA activity) RARα.
Source text: as §1, §2
(§3) A compound should not cause significant activation of a reporter gene through a given receptor subtype (RAR-α, RAR-β or RAR-γ) in the holoreceptor transactivation assay, in order to qualify as an RAR antagonist with utility in the present invention.

For assay [3], the target named is T2, RARβ (Homo sapiens, UniProt P10826).
T2 sequence (P10826 1-448 isoform P10826-2): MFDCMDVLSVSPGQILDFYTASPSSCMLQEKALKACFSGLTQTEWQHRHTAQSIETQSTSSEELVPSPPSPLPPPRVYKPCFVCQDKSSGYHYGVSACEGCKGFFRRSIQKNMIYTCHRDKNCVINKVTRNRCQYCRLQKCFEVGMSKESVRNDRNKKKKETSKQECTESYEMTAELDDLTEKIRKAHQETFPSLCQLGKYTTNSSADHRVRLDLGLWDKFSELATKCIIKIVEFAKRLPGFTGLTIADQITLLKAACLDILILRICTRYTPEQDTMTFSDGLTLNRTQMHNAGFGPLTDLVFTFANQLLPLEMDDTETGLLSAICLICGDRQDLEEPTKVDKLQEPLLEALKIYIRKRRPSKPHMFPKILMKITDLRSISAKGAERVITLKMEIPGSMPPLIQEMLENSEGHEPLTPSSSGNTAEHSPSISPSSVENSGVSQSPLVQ
Set-up: expressed in transfected cells; host or cells: CV1 cells. The following applies: relative to all trans retinoic acid; read-out: Transactivation Assay Efficacy (% of RA activity) RARβ.
Source text: as §1, §2, §3

In assay [4] the target is T3, RARγ (Homo sapiens, UniProt P13631).
T3 sequence (P13631 1-454): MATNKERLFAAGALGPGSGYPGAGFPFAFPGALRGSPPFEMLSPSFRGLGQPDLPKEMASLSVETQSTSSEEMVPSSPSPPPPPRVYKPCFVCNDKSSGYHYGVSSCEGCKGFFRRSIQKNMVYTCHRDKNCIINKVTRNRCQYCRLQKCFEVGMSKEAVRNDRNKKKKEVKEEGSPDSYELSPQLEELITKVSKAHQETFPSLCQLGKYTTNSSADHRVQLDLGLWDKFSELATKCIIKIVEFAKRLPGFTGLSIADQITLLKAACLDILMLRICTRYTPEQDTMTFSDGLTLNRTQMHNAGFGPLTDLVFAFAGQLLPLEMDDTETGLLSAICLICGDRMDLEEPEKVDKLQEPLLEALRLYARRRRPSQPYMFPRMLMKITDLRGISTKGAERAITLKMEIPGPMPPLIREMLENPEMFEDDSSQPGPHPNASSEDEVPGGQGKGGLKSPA
Set-up: expressed in transfected cells; host or cells: CV1 cells. The following applies: relative to all trans retinoic acid; read-out: Transactivation Assay Efficacy (% of RA activity) RARγ.
Source text: as §1, §2, §3

On to `CC(C)(C)c1ccc(C2=CCC(C)(C)c3ccc(C#Cc4ccc(C(=O)O)cc4)cc32)cc1` [Compound 61, 4-[(5,6-Dihydro-5,5-dimethyl-8-(4-(1,1-dimethylethyl)phenyl)-2-naphthalenyl)ethynyl]benzoic acid], for which the “Transactivation Assay Efficacy (% of RA activity) RXRβ” value in assay [1] is listed as 0.00 % of RA activity. Besides, the Emax in assay [2] is 2%; in assay [3], 2%; in assay [4], 0%.

In the case of `Cc1ccc(C2=CCC(C)(C)c3ccc(C(=S)Nc4ccc(C(=O)O)c(F)c4)cc32)cc1` [Compound 63, 2-fluoro-4-[[(5,6-dihydro-5,5-dimethyl-8-(4-methylphenyl)-2-naphthalenyl)thiocarbonyl]amino]-benzoic acid], in assay [1], the “Transactivation Assay Efficacy (% of RA activity) RXRβ” value was 0.00 % of RA activity. The Emax in assay [2] stood at 2%; in assay [3], 2%; in assay [4], 7%.

As to `Cc1ccc(C2=CCC(C)(C)c3cc(C(=O)C=Cc4ccc(C(=O)O)cc4)ccc32)cc1` [Compound 101, 4-[3-oxo-3-(7,8-dihydro-5-(4-methylphenyl)-8,8-dimethyl-2-naphthalenyl)-1-propenyl]-benzoic acid], the “Transactivation Assay Efficacy (% of RA activity) RXRβ” value in assay [1] is recorded as 0.00 % of RA activity. For the same compound, the values for the Emax in assay [2], in assay [3] and in assay [4] were 0%, 4% and 2%, respectively.

Turning to `CC1(C)CC=C(c2ccccc2)c2ccc(C(=O)C=Cc3ccc(C(=O)O)cc3)cc21` [Compound 103, 4-[3-oxo-3-(7,8-dihydro-5-phenyl-8,8-dimethyl-2-naphthalenyl)-1-propenyl]-benzoic acid], the “Transactivation Assay Efficacy (% of RA activity) RXRβ” value in assay [1] is 0.0 % of RA activity. Further, the values for the Emax in assay [2], in assay [3] and in assay [4] were 4%, 12% and 7%, respectively.

The values above are taken from patent publication US6469028B1, “Synthesis and use of retinoid compounds having negative hormone and/or anatgonist activities” (Allergan, Inc., priority 1995, dated 2002).
